The conditions of series [1]: cited from earlier work; for LFT elevations in the clinic: dose levels evaluated in the clinic.
A further series relates to CYP3A. In words: phase I Part 1B PK, CYP3A-mediated drug–drug interaction with enzalutamide. It is filed as in vivo, human. The settings on record: coadministered enzalutamide 160 mg q.d.

In the case of “fresolimumab: other TGF-β inhibitor in clinical studies”, the “bleeding in clinical studies” value in series [1] is “Bleeding (including intratumoral bleeding) has been observed”.

As to `CNC(=O)c1ccc(N2C(=S)N(c3ccc(C#N)c(C(F)(F)F)c3)C(=O)C2(C)C)cc1F` [enzalutamide], the “CYP3A4 enzyme induction effect on PF-06952229” value in the series with CYP3A was “strong cytochrome P450 3A4 (CYP3A4) enzyme induction effect”. As for `CC(C)(O)c1cc(Nc2cc(Oc3cn(C4CC4)nc3C3CCOCC3)ccn2)ccn1` [LY3200882], the “LFT elevations in the clinic” value in series [1] was “not demonstrated severe LFT elevations”. Take `Cc1cccc(-c2nn3c(c2-c2ccnc4ccc(C(N)=O)cc24)CCC3)n1` [galunisertib]: the “LFT elevations in the clinic” value in series [1] is “not demonstrated severe LFT elevations”. With “bintrafusp alfa: bifunctional fusion protein targeting TGF-β and PD-L1”, the “bleeding in clinical studies” value in series [1] is given as “Bleeding (including intratumoral bleeding) has been observed”.

These data come from article PMC11402040 (ESMO Open, 2024).
